Test results taken from patent US8178506B2, “Oligomeric compounds and compositions for use in modulation of small non-coding RNAs” (Regulus Therapeutics Inc., priority 2003, dated 2012).
Where “and” joins values, the source holds several entries; their conditions need not be identical. Equal entries are not always repeated. In the oligonucleotide strings, read from the 5' end, every base follows the letter of its sugar. An asterisk marks phosphorothioate; unmarked linkages are phosphodiester. Other units and linkages are bracketed, terminal groups are in braces. A string of capitals states the bases alone. e = 2'-O-(2-methoxyethyl) (MOE); [5mC] = 5-methylcytosine; d = 2'-deoxy (DNA)

System: HeLa cells
Test: Cell cycle assay in HeLa cells
Format: cell-based, human
Settings: HeLa cells
[1] = 150 nM oligomeric compound, 24 hours, relative to untreated control (UTC = 100)
[2] = 150 nM oligomeric compound, 48 hours after treatment, relative to untreated control (UTC=100)
[3] = 25 nM, 48 hours, percentage of cells in phase, average of replicates
[4] = 50 nM, 48 hours, percentage of cells in phase, average of replicates
[5] = 100 nM, 48 hours, percentage of cells in phase, average of replicates
[6] = 150 nM, 48 hours, relative to untreated control
[7] = 150 nM, 48 hours, percentage of cells in phase, average of replicates

327944 (antisense eA*eA*eA*eG*eT*eG*eT*e[5mC]*eA*eG*eA*eT*eA*e[5mC]*eG*eG*eT*eG*eT*eG*eG) [compound 327944]
% cells aneuploid [1]: 50% | % cells in cell cycle phase G1 [1]: 85% | % cells in cell cycle phase G2/M [1]: 111% | % cells in cell cycle phase S [1]: 110% | % cells in cell cycle phase subG1 [1]: 165% | % cells in cell cycle phase: G1 [2]: 75% | % cells in cell cycle phase: G2/M [2]: 144% | % cells in cell cycle phase: S [2]: 129% | % cells in cell cycle phase: aneuploid [2]: 78% | % cells in cell cycle phase: subG1 [2]: 490%

327946 (antisense eA*eG*eG*e[5mC]*eG*eA*eA*eG*eG*eA*eT*eG*eA*e[5mC]*eA*eA*eA*eG*eG*eG*eA*eA) [compound 327946]
% cells aneuploid [1]: 43% | % cells in cell cycle phase G1 [1]: 90% | % cells in cell cycle phase G2/M [1]: 156% | % cells in cell cycle phase S [1]: 84% | % cells in cell cycle phase subG1 [1]: 225% | % cells in cell cycle phase: G1 [2]: 72% | % cells in cell cycle phase: G2/M [2]: 129% | % cells in cell cycle phase: S [2]: 150% | % cells in cell cycle phase: aneuploid [2]: 76% | % cells in cell cycle phase: subG1 [2]: 431%

327949 (antisense e[5mC]*eA*e[5mC]*eA*eA*eA*eT*eT*e[5mC]*eG*eG*eA*eT*e[5mC]*eT*eA*e[5mC]*eA*eG*eG*eG*eT*eA) [compound 327949]
% cells aneuploid [1]: 68% | % cells in cell cycle phase G1 [1]: 82% | % cells in cell cycle phase G2/M [1]: 172% | % cells in cell cycle phase S [1]: 84% | % cells in cell cycle phase subG1 [1]: 194% | % cells in cell cycle phase: G1 [2]: 66% | % cells in cell cycle phase: G2/M [2]: 138% | % cells in cell cycle phase: S [2]: 157% | % cells in cell cycle phase: aneuploid [2]: 71% | % cells in cell cycle phase: subG1 [2]: 773%

327957 (antisense e[5mC]*eA*e[5mC]*eA*eA*eG*eT*eT*e[5mC]*eG*eG*eA*eT*e[5mC]*eT*eA*e[5mC]*eG*eG*eG*eT*eT) [compound 327957]
% cells aneuploid [1]: 66% | % cells in cell cycle phase G1 [1]: 91% | % cells in cell cycle phase G2/M [1]: 145% | % cells in cell cycle phase S [1]: 88% | % cells in cell cycle phase subG1 [1]: 197% | % cells in cell cycle phase: G1 [2]: 65% | % cells in cell cycle phase: G2/M [2]: 127% | % cells in cell cycle phase: S [2]: 169% | % cells in cell cycle phase: aneuploid [2]: 85% | % cells in cell cycle phase: subG1 [2]: 864%

328403 (antisense eA*eG*eG*e[5mC]*e[5mC]*dT*dA*dT*dT*d[5mC]*d[5mC]*dT*dG*dT*dA*eG*e[5mC]*eA*eA*eA) [compound 328403]
% cells in cell cycle phase: G2/M (25 nM, 48 hours): 18% | % cells in cell cycle phase: G1 [3]: 58% | % cells in cell cycle phase: S [3]: 24% | % cells in cell cycle phase: aneuploid [3]: 13% | % cells in cell cycle phase: subG1 [3]: 1.5% | % cells in cell cycle phase: G2/M (50 nM, 48 hours): 20% | % cells in cell cycle phase: G1 [4]: 53% | % cells in cell cycle phase: S [4]: 27% | % cells in cell cycle phase: aneuploid [4]: 14% | % cells in cell cycle phase: subG1 [4]: 1.1% | % cells in cell cycle phase: G2/M (100 nM, 48 hours): 23% | % cells in cell cycle phase: G1 [5]: 48% | % cells in cell cycle phase: S [5]: 29% | % cells in cell cycle phase: aneuploid [5]: 11% | % cells in cell cycle phase: subG1 [5]: 3.5% | % cells aneuploid [1]: 53% and 82% | % cells in cell cycle phase G1 [1]: 70% and 86% | % cells in cell cycle phase G2/M [1]: 197% and 179% | % cells in cell cycle phase S [1]: 85% and 75% | % cells in cell cycle phase subG1 [1]: 284% and 189% | % cells in cell cycle phase: G1 [2]: 61% and 82% | % cells in cell cycle phase: G2/M [2]: 131% and 106% | % cells in cell cycle phase: S [2]: 177% and 148% | % cells in cell cycle phase: aneuploid [2]: 85% and 80% | % cells in cell cycle phase: G2/M (150 nM, 48 hours): 24% | % cells in cell cycle phase G1 [6]: 125% | % cells in cell cycle phase G2/M [6]: 80% | % cells in cell cycle phase S [6]: 89% | % cells in cell cycle phase aneuploid [6]: 175% | % cells in cell cycle phase subG1 [6]: 89% | % cells in cell cycle phase: G1 [7]: 37% | % cells in cell cycle phase: S [7]: 40% | % cells in cell cycle phase: aneuploid [7]: 13% | % cells in cell cycle phase: subG1 [7]: 8.2%
